{
  "source": "patent US20140212478A1",
  "about": "“METHOD FOR PREVENTING AND/OR TREATING PERIODONTAL DISEASE” (priority 2008, published 2014)",
  "tested_on": "dental root-periodontal tissue of excised first molar (lower jaw)",
  "assay": "Effect on dental root-periodontal tissue formation: honokiol-impregnated agarose bead embedded into dental pulp of excised mouse first molar, graft culture under kidney capsule of host mice",
  "type": "in vivo, C57BL/6 mice",
  "source_text": "Dulbecco' phosphate buffered saline (hereinbelow, it is some times referred to as “D-PBS”) was purchased from Dainippon Pharmaceuticals Inc. Affi-Gel agarose beads (Affigel heparin Cat. No.: 15306173) were purchased from Bio-Rad Laboratories, Inc. Five days age of C57BL/6 mice were purchased from Sankyo Labo Service Corporation. As host mice, 10 to 15 weeks age of C57BL/6 mice (female) were purchased from Sankyo Labo Service Corporation, and used two per group. Since it was know that a kidney and an anterior chamber of eye hardly have immune response among organs in adult mice, it was not necessary to especially use nude mice in graft culture.\nHonokiol-impregnated agarose beads were prepared as follows. Honokiol was diluted to the concentration of 10 μM by using D-PBS. The agarose beads were washed with D-PBS.\nAfter washing, four agarose beads were placed in the 1.5 mL tube and 100 μL of the honokiol solution was added into it. Then, the tube was incubated at room temperature for 45 minutes to impregnated honokiol into the agarose beads. As mentioned above, absorptive beads including heparin honokiol impregnation (hereinbelow, it is sometimes referred to as “honokiol-impregnated agarose beads”) were prepared.\nAlternatively, another four agarose beads were placed in the 1.5 mL tube and 100 μL of D-PBS was added into it to prepare D-PBS-impregnated agarose beads were prepared, and they were used as negative control.\nFive days age of […] mice, where their dental root-periodontal tissue was just before formed, were anesthetized and sacrificed by decapitation. After excised lower jaw of them, the first molars in the lower jaw were excised with dental follicles. One of the honokiol-impregnated agarose beads prepared in the (5-1) was embedded into the dental pulp of the excised teeth, the first molar in the lower jaw.\nAs the negative control, one of the D-PBS-impregnated agarose beads prepared was embedded into the dental pulp of another excised teeth, the first molar in the lower jaw.\nThe excised teeth under which the honokiol-impregnated agarose bead was embedded, and that under which the D-PBS impregnated agarose bead was embedded, were respectively grafted under capsule of kidney of the host mice. The host mice were bred under the condition of 12 hours lighting, at room temperature, 25° C., free taking feed and water for three weeks.\nAfter three weeks from grafting of the excised tooth, the host mice were sacrificed by dislocation of cervical vertebrae to excise the kidney to recover the cultured excised tooth (grafted tooth).\nFormation of dental root-periodontal tissue (extension), coat of the dental root, and bone of the grafted tooth, which was recovered, were observed under stereoscopic microscope, and then subjected to tomography by using micro CT. […]",
  "note": "Entries after “also recorded” stand apart in the source; their conditions may differ.",
  "data": [
    {"substance": "honokiol", "values": [
      {"measurement": "extension of dental root (dental root-periodontal tissue formation)", "setting": "agarose bead impregnated with 10 μM honokiol in D-PBS, embedded into dental pulp, three weeks graft culture under kidney capsule, stereoscopic microscope and micro CT, compared to D-PBS negative control", "result": "prominent extension of dental root; also recorded: excellent promotion effect for dental root-periodontal tissue formation (extension)"},
      {"measurement": "bone formation around the newly formed dental root", "setting": "agarose bead impregnated with 10 μM honokiol, embedded into dental pulp, three weeks graft culture under kidney capsule, all graft samples with dental root extension", "result": "bone formation around the newly formed dental root were also observed"},
      {"measurement": "periodontal ligament-like structure between the dental root and the bone formed", "setting": "agarose bead impregnated with 10 μM honokiol, embedded into dental pulp, three weeks graft culture, soft X-ray / micro CT section", "result": "structure similar to periodontal ligamentous band was observed"},
      {"measurement": "promotion effect for surrounding tissue (periodontal ligament and alveolar bone), overall conclusion", "setting": "pharmaceutical preparation comprising honokiol as the active ingredient, conclusion from graft culture results", "result": "promotion effect for surrounding tissue such as the periodontal ligament and alveolar bone"}
    ]}
  ]
}
